EP1007514B1, “HETEROCYCLIC KETONES AS NPY Y5 ANTAGONISTS” (BAYER CORPORATION, priority 1997, dated 1999)

What was measured:
[1] = biological target: T1, human NPY Y5 receptor subtype (Homo sapiens, UniProt Q15761); assay: NPY Y5 receptor membrane binding, [125I]PYY (human); conditions: membrane protein; 75-100 pM [125I]PYY; 50% inhibition of specific binding; read-out: IC50 (µM) NPY receptor indicated hY5
T1 sequence (Q15761 1-445): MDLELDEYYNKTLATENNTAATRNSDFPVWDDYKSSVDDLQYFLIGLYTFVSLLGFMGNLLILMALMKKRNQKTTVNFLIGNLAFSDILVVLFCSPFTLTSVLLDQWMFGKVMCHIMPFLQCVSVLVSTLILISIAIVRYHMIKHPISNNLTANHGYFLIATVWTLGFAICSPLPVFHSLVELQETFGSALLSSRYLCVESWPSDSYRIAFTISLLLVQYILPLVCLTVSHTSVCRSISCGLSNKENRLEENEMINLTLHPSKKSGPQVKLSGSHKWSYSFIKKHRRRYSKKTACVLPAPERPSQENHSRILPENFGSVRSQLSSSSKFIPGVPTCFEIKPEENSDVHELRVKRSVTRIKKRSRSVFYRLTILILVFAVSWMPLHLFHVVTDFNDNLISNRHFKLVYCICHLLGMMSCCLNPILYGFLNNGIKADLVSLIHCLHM
Method: Assays to determine human and rat NPY Y5 receptor subtype binding affinity are performed on GF/C Millipore 96-well plates pretreated with 0.02% polyethylenimine. The binding buffer is 25 mM Tris, 120 mM NaCl, 5 mM KCl, 1.2 mM KH2PO4, 2.5 mM CaCl2, 1.2 mM MgSO4, 0.1% BSA and 0.5 mg/ml bacitracin, pH 7.4. Samples consist of membrane protein, 75-100 pM [^125I] PYY (porcine, NEN-DuPont) and test compounds diluted in binding buffer. Nonspecific binding is defined by 1 µM PYY. After a 2 hour incubation at room temperature with constant mixing, the samples are aspirated on a vacuum manifold and rinsed with ice-cold binding buffer. The amount of radioactivity in each well is quantitated with either gamma counting or liquid scintillation. IC50 values, which correspond to 50% inhibition of specific binding, are determined with non-linear regression analysis.

[2] = biological target: T2, human NPY Y1 receptor subtype (Homo sapiens, UniProt P25929); assay: NPY Y1 receptor binding, [125I]PYY on SK-N-MC cells; conditions: test compounds at 5 µM final concentration, [125I]PYY about 50 pM, read-out: IC50 (µM) NPY receptor indicated hY1
T2 construct: host or cells: SK-N-MC cells
T2 sequence (P25929 1-384): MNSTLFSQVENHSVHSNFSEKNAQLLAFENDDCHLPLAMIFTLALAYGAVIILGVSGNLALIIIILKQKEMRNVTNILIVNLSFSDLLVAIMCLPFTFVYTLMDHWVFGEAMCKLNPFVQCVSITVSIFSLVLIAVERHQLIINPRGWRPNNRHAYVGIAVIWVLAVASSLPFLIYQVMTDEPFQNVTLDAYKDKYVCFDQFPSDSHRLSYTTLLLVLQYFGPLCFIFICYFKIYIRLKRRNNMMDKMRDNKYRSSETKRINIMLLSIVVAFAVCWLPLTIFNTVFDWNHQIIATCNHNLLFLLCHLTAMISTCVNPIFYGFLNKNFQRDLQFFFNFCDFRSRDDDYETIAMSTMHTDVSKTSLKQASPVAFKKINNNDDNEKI
Method: For instance, test compounds antagonistic to human NPY Y1 receptor subtype can be identified by a modified method of Gordon et al., J. Neurochem. 55:506-513,(1990), wherein SK-N-MC cells (ATCC, Rockville, ND) are plated in 24-well plates. Once confluent, the cells are rinsed with Dulbecco's phosphate buffered saline (DPBS). Cells are then preincubated in binding buffer containing serum-free DMEM, 25 mM HEPES (pH 7.3), 0.5% bovine serum albumin (BSA), 0.1% bacitracin and 0.1mM phenylmethylsulfonyl fluoride for 30 minutes at room temperature. Test compounds at a final concentration of 5 µM, and [^125I] PYY (about 50 pM:NEN-DuPont) are added to the wells, and the cells are incubated for an additional 3 hours at room temperature, followed by rinsing with ice-cold DPBS. Nonspecific binding is defined with 1 µM NPY. After lysing the cells with 1% Triton X-100, the amount of radioactivity in the lysates is quantitated with a gamma counter.

human Y4/PP1 = human Y4/PP1 (Homo sapiens, UniProt P50391); assay: NPY Y4/PP1 receptor membrane binding, [125I] human PP; conditions: membrane protein; 50 pM [125I] human PP; test compounds at 5 µM final concentration; read-out: IC50 (µM) NPY receptor indicated hY4/pp1
Chain of human Y4/PP1 (P50391 whole entry): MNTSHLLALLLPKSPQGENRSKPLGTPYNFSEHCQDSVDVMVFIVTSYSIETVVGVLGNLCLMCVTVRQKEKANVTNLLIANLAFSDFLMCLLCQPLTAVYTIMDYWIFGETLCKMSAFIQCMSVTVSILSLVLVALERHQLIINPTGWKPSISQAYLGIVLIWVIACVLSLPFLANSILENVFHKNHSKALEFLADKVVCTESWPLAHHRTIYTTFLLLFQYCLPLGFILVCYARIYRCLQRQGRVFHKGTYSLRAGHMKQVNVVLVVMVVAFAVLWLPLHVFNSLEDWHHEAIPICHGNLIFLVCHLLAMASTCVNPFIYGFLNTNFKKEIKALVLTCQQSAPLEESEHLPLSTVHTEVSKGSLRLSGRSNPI
Method: Assays to determine binding affinity for human NPY Y2 and Y4/PP1 receptor subtypes are performed on GF/C Millipore 96-well plates pretreated with 0.02% polyethylenimine. The binding buffer for rat NPY Y2 receptor subtype binding is Krebs-Ringer bicarbonate (pH 7.4) containing 0.01% BSA and 0.005% bacitracin. Samples consist of membrane protein, 25 pM [^125I]PYY and test compounds at 5 µM final concentration. Nonspecific binding is defined by 1 µM NPY. The binding buffer for human Y4/PP1 binding consists of 137 mM NaCl, 5.4 mM KCl, 0.44 mM KH2PO4, 1.26 mM CaCl2, 0.81 mM MgSO4, 20 mM HEPES, 1 mM dithiothreitol, 0.1% bacitracin, 100 mg/l streptomycin sulfate, 1 mg/l aprotinin, 10 mg/ml soybean trypsin inhibitor and 0.3% BSA, pH 7.4. Samples consist of membrane protein, 50 pM human [^125I] human PP (hPP:NEN DuPont, Boston MA) and test compounds diluted to a final concentration of 5 µM. One µM hPP is used to define nonspecific binding. After a 2 hour incubation at room temperature with constant mixing, the samples are aspirated on a vacuum manifold, and rinsed with ice-cold binding buffer. The amount of radioactivity in each well is quantitated with either gamma counting or liquid scintillation.

Compound | IC50 [1] | IC50 [2] | IC50 (human Y4/PP1)
Cc1ccc(S(=O)(=O)CC(C(=O)c2nc3ccccc3s2)c2ccccc2)cc1 (stereo not drawn) [Compound 6, 1-Benzothizol-2-yl-2-phenyl-3-(toluene-4-sulfonyl)-propan-1-one] | 8.8 µM | > 5 µM | > 5 µM
Cc1ccc(S(=O)(=O)CC(C(=O)c2nc3cc(C)c(C)cc3[nH]2)c2ccccc2)cc1 (stereo not drawn) [Compound 7, (5,6-Dimethyl-1H-benzoimidazol-2-yl)-2-phenyl-3-(toluene-4-sulfonyl)-propan-1-one] | 0.06 µM | > 5 µM | > 5 µM
Cc1ccc(SCC(C(=O)c2ncc[nH]2)c2ccccc2)cc1 (stereo not drawn) [Compound 2, (1H-Imidazol-2-yl)-2-phenyl-3-p-tolylsulfanyl-propan-1-one] | 0.83 µM | > 5 µM | > 5 µM

More lines, now with the values ahead:

IC50 [1] | IC50 [2] | IC50 (human Y4/PP1) | Compound
0.011 µM | > 5 µM | > 5 µM | COc1ccc(S(=O)(=O)CC(C(=O)c2nc3ccccc3[nH]2)c2ccccc2)cc1 (stereo not drawn) [Compound 10, 1-(1H-Benzoimidazol-2-yl)-3-(4-methoxy-benzenesulfonyl)-2-phenyl-propan-1-one]
0.08 µM | > 5 µM | > 5 µM | COc1ccc2[nH]c(C(=O)C(CS(=O)(=O)c3ccc(C)cc3)c3ccccc3)nc2c1 (stereo not drawn) [Compound 14, 1-(5-Methoxy-1H-benzoimidazol-2-yl)-2-phenyl-3-(toluene-4-sulfonyl)-propan-1-one]
0.022 µM | > 5 µM | > 5 µM | O=C(c1nc2ccccc2[nH]1)C(CS(=O)(=O)c1ccccc1)c1ccccc1 (stereo not drawn) [Compound 8, 3-Benzenesulfonyl-1-(1H-benzoimidazol-2-yl)-2-phenyl-propan-1-one]
